According to patent US12583824B2 (Genzyme Corporation, priority 2019, dated 2026):

Target: T1, CFTR in primary human bronchial epithelial cells from a ΔF508 homozygous CF donor (CF-HBE cells) (Homo sapiens, UniProt P13569, DEL508-508)
T1 construct: Primary human bronchial epithelial cells from a ΔF508 homozygous CF donor; host or cells: primary human bronchial epithelial cells (CF-HBE), ΔF508 homozygous donor
Experiment: TECC24 recording analysis of CFTR-mediated transepithelial chloride transport (AUC fold over DMSO)
Type: cell-based
Settings: 3 μM test agent, CF-HBE cells cultured 48 hours at 36.5° C.; ratio of test agent AUC of forskolin-stimulated IEQ divided by vehicle (DMSO) AUC
Experimental: Example 31: TECC24 AUC Fold Over DMSO @ 3 μM
The effects of a test agent on CFTR-mediated transepithelial chloride transport was measured using TECC24 recording analysis. Test agents were solubilized in DMSO. Solubilized test agents were mixed with incubation medium containing DMEM/F12, Ultroser G (2%; Crescent Chemical, catalog #67042), Hyclone Fetal Clone II (2%; GE Healthcare, catalog #SH30066.02), bovine brain extract (0.25%; Lonza, catalog #CC-4098), insulin (2.5 μg/mL), IL-13 (10 ng/mL), hydrocortisone (20 nM), transferrin (2.5 μg/mL), triiodothyronine (500 nM), ethanolamine (250 nM), epinephrine (1.5 μM), phosphoethanolamine (250 nM), and retinoic acid (10 nM). Primary human bronchial epithelial cells from a ΔF508 homozygous CF donor (CF-HBE cells; from University of North Carolina Cystic Fibrosis Tissue Procurement Center), grown on Transwell HTS 24-well cell culture inserts (Costar, catalog #3378), were exposed to test agents or controls dissolved in incubation medium. The CF-HBE cells were cultured at 36.5° C. for 48 hours before TECC24 recordings were performed in the presence or absence of test agent, a positive control or vehicle (DMSO).
Following incubation, the transwell cell culture inserts containing the test agent or control-treated CF-HBE cells were loaded onto a TECC24 apparatus (TECC v7 or MTECC v2; EP Design) to record the transepithelial voltage (VT) and resistance (TEER) using 4 AgCl electrodes per well configured in current-clamp mode. The apical and basolateral bath solutions both contained (in mM) 140 NaCl, 5 KCl, 2 CaCl2), 1 MgCl2, 10 Hepes, and 10 glucose (adjusted to pH 7.4 with NaOH). To inhibit basal Na+ absorption, the ENaC inhibitor benzamil (10 μM) was added to the bath. Then, the adenylate cyclase activator, forskolin (10 μM), was added to the bath to activate CFTR. The forskolin-stimulated Cl-transport was halted by addition of bumetanide (20 μM), an inhibitor of the basolateral chloride co-transporter NKCC1, to the bath to confirm that the detected signal was chloride dependent. VT and TEER recordings were digitally acquired at routine intervals using TECC or MTECC software (EP Design). VT and TEER were transformed into equivalent transepithelial Cl-current (IEQ), and the Area Under the Curve (AUC) of the IEQ time course between forskolin and bumetanide addition is generated using Excel (Microsoft). Efficacy is expressed as the ratio of the test agent AUC divided by vehicle AUC. EC50s based on AUC are generated using the non-linear regression log(agonist) vs. response function in Prism software (GraphPad) with Hill Slope fixed=1.
If a test agent increased the AUC of the forskolin-stimulated IEQ relative to vehicle in CF-HBE cells, and this increase was inhibited by bumetanide, then the test agent was considered a CFTR corrector.

T1 sequence (P13569 with tags, fused parts or gaps DEL508-508): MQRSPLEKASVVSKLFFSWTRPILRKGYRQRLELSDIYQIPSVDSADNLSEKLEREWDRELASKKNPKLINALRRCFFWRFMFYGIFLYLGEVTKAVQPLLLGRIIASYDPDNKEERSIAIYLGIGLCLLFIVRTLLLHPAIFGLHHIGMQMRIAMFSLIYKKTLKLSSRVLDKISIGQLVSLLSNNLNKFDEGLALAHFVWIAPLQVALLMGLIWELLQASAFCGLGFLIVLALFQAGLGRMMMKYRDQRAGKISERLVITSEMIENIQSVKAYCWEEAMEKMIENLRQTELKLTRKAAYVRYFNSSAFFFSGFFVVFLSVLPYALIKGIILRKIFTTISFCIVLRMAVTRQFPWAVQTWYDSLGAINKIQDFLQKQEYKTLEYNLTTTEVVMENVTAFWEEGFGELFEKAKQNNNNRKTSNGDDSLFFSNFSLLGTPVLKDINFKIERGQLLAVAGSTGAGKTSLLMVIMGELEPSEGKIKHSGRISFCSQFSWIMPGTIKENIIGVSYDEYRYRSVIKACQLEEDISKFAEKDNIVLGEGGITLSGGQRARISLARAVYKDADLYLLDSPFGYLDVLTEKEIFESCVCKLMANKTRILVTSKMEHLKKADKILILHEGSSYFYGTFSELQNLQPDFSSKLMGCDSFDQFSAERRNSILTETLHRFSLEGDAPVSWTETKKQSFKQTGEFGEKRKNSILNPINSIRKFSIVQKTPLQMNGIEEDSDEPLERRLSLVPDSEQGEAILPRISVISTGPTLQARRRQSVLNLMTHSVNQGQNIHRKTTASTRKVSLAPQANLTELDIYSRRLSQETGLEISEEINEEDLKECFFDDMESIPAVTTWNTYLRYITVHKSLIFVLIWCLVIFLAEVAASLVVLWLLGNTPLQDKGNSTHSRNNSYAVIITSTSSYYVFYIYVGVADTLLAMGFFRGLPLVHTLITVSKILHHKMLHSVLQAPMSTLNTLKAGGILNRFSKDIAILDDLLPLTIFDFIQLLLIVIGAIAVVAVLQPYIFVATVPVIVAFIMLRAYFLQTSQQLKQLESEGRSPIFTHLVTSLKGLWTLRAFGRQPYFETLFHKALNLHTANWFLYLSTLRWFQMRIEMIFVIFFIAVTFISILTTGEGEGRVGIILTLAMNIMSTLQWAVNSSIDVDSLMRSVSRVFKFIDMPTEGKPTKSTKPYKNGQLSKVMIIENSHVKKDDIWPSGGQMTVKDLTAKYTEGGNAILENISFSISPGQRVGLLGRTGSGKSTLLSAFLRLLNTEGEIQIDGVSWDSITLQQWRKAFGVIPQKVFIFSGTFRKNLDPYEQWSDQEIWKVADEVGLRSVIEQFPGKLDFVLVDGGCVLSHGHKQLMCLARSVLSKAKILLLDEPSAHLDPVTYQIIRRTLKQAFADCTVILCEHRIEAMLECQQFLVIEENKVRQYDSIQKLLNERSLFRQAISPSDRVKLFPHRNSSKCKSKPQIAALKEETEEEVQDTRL

| SMILES | TECC24 AUC vs. DMSO (@3 μM) |
| --- | --- |
| Cc1cccc(C)c1-c1nc(NS(=O)(=O)c2cn(C)nc2C)cnc1-c1cccc([C@@H]2CC[C@H](OC(F)(F)F)C2)c1 (single isomer, unassigned) [Example 7a] | C (“C” refers to AUC < 2) |
| Nc1cccc(S(=O)(=O)Nc2ncc(-c3cccc([C@@H]4CC[C@@H](OC(F)(F)F)C4)c3)c(-c3ccccc3C(F)(F)F)n2)c1 (single isomer, unassigned) [Example 30b] | A (“A “refers to AUC > 5) |
| CC(C)c1cc(Cl)ccc1-c1nc(NS(=O)(=O)c2ccccc2)ccc1-c1cccc(OC(F)(F)F)c1 [Example 19, N-(6-(4-chloro-2-isopropylphenyl)-5-(3-(trifluoromethoxy)phenyl)pyridin-2-yl)benzenesulfonamide] | A (“A “refers to AUC > 5) |
| CC(C)c1ccccc1-c1nc(NS(=O)(=O)c2cccc(N)c2)ccc1-c1cccc(OCCC(C)(C)C)c1 [Example 16, 3-amino-N-(5-(3-(3,3-dimethylbutoxy)phenyl)-6-(2-isopropylphenyl)pyridin-2-yl)benzenesulfonamide] | A (“A “refers to AUC > 5) |
| Cc1cccc(C)c1-c1nc(NS(=O)(=O)c2ccccc2)ccc1-c1cccc(OCCC(C)(C)C)c1 [Example 15, N-(5-(3-(3,3-dimethylbutoxy)phenyl)-6-(2,6-dimethylphenyl)pyridin-2-yl)benzenesulfonamide] | A (“A “refers to AUC > 5) |
| CCc1ccccc1-c1nc(NS(=O)(=O)c2cccc(N3CCCC(C)(C(=O)O)C3)n2)ccc1-c1cccc(OCC(F)(F)F)c1 (centres unmarked) [Example 21, 1-[6-[[6-(2-ethylphenyl)-5-[3-(2,2,2-trifluoroethoxy)phenyl]-2-pyridyl]sulfamoyl]-2-pyridyl]-3-methyl-piperidine-3-carboxylic acid] | A (“A “refers to AUC > 5) |
| Cc1nn(C)cc1S(=O)(=O)Nc1cnc(-c2cccc([C@@H]3CC[C@@H](OC(F)(F)F)C3)c2)c(-c2ccccc2C(C)C)n1 (single isomer, unassigned) [Example 8b] | B (“B” refers to AUC between 2-5) |
| CC(C)(C)COc1cc(-c2cnc(NS(=O)(=O)c3ccccc3)nc2-c2ccc(C(F)(F)F)cc2)ccc1Cl [Example 22, 5-(4-chloro-3-(neopentyloxy)phenyl)-2-((phenylsulfonyl)-12-azaneyl)-4-(4-(trifluoromethyl)phenyl)pyrimidine] | C (“C” refers to AUC < 2) |
| CC(C)(C)COc1cc(-c2ccc(NS(=O)(=O)c3cccc(N)n3)nc2-c2ccc(C(F)(F)F)cc2)ccc1Cl [Example 13, 6-amino-N-(5-(4-chloro-3-(neopentyloxy)phenyl)-6-(4-(trifluoromethyl)phenyl)pyridin-2-yl)pyridine-2-sulfonamide] | C (“C” refers to AUC < 2) |
| CC(C)(C)COc1cc(-c2cnc(NS(=O)(=O)c3cccc(Cl)n3)nc2-c2ccc(C(F)(F)F)cc2)ccc1Cl [Example 26, 5-(4-chloro-3-(neopentyloxy)phenyl)-2-(((6-chloropyridin-2-yl)sulfonyl)-12-azaneyl)-4-(4-(trifluoromethyl)phenyl)pyrimidine] | C (“C” refers to AUC < 2) |
| Nc1cccc(S(=O)(=O)Nc2ncc(-c3cccc([C@H]4CC[C@H](OC(F)(F)F)C4)c3)c(-c3ccccc3C(F)(F)F)n2)c1 (single isomer, unassigned) [Example 29b] | B (“B” refers to AUC between 2-5) |
| CC(C)(C)COc1cc(-c2ccc(NS(=O)(=O)c3ccccc3)nc2-c2ccc(C(F)(F)F)cc2)ccc1Cl [Example 14, N-(5-(4-chloro-3-(neopentyloxy)phenyl)-6-(4-(trifluoromethyl)phenyl)pyridin-2-yl)benzenesulfonamide] | C (“C” refers to AUC < 2) |
| O=S(=O)(Nc1ncc(-c2cccc([C@@H]3CC[C@H](OC(F)(F)F)C3)c2)c(-c2ccccc2C(F)(F)F)n1)c1ccccc1 (single isomer, unassigned) [Example 28a] | A (“A “refers to AUC > 5) |
| Nc1cccc(S(=O)(=O)Nc2ncc(-c3cccc([C@@H]4CC[C@H](OC(F)(F)F)C4)c3)c(-c3ccccc3C(F)(F)F)n2)c1 (single isomer, unassigned) [Example 30a] | B (“B” refers to AUC between 2-5) |
| Cc1cccc(C)c1-c1nc(NS(=O)(=O)c2ccccc2)cnc1-c1cccc([C@@H]2CC[C@H](OC(F)(F)F)C2)c1 (single isomer, unassigned) [Example 6a] | B (“B” refers to AUC between 2-5) |
| Cc1cccc(C)c1-c1nc(NS(=O)(=O)c2cccc(NC3CC(C)(O)C3)c2)ccc1-c1cccc(OCC(C)(C)C(F)(F)F)c1 (centres unmarked) [Example 20] | A (“A “refers to AUC > 5) |
| Cc1cccc(C)c1-c1nc(NS(=O)(=O)c2ccccc2)cnc1-c1ccc(F)c(OCC(C)(C)C(F)(F)F)c1 [Example 4, N-(6-(2,6-dimethylphenyl)-5-(4-fluoro-3-(3,3,3-trifluoro-2,2-dimethylpropoxy)phenyl)pyrazin-2-yl)benzenesulfonamide] | A (“A “refers to AUC > 5) |
| CC(C)c1ccccc1-c1nc(NS(=O)(=O)c2ccccc2)cnc1-c1cccc(OCC(F)(F)C(C)(C)C)c1 [Example 1, N-(5-(3-(2,2-difluoro-3,3-dimethylbutoxy)phenyl)-6-(2-isopropylphenyl)pyrazin-2-yl)benzenesulfonamide] | A (“A “refers to AUC > 5) |
| CC(C)c1ccccc1-c1nc(NS(=O)(=O)c2ccccc2)cnc1-c1cccc([C@@H]2CC[C@H](OC(F)(F)F)C2)c1 (single isomer, unassigned) [Example 9a] | C (“C” refers to AUC < 2) |
| Cc1nn(C)cc1S(=O)(=O)Nc1cnc(-c2cccc([C@@H]3CC[C@H](OC(F)(F)F)C3)c2)c(-c2ccccc2C(C)C)n1 (single isomer, unassigned) [Example 8a] | C (“C” refers to AUC < 2) |
| CC(C)(C)COc1cc(-c2cnc(NS(=O)(=O)c3cccc(NS(C)(=O)=O)c3)nc2-c2ccc(C(F)(F)F)cc2)ccc1Cl [Example 24, N-(5-(4-chloro-3-(neopentyloxy)phenyl)-4-(4-(trifluoromethyl)phenyl)pyrimidin-2-yl)-3-(methylsulfonamido)benzenesulfonamide] | C (“C” refers to AUC < 2) |
| Cc1cccc(C)c1-c1nc(NS(=O)(=O)c2ccccc2)cnc1-c1cccc(OCCC(C)(C)C)c1 [Example 3, N-(5-(3-(3,3-dimethylbutoxy)phenyl)-6-(2,6-dimethylphenyl)pyrazin-2-yl)benzenesulfonamide] | A (“A “refers to AUC > 5) |
| CC(C)(C)COc1cc(-c2cnc(NS(=O)(=O)c3cccc(N)c3)nc2-c2ccc(C(F)(F)F)cc2)ccc1Cl [Example 23] | B (“B” refers to AUC between 2-5) |
| Cc1cccc(C)c1-c1nc(NS(=O)(=O)c2ccccc2)cnc1-c1cccc([C@@H]2CC[C@@H](OC(F)(F)F)C2)c1 (single isomer, unassigned) [Example 6b] | A (“A “refers to AUC > 5) |
| Cc1cccc(C)c1-c1nc(NS(=O)(=O)c2ccccc2)cnc1-c1cccc(OCC(F)(F)C(C)(C)C)c1 [Example 2, N-(5-(3-(2,2-difluoro-3,3-dimethylbutoxy)phenyl)-6-(2,6-dimethylphenyl)pyrazin-2-yl)benzenesulfonamide] | A (“A “refers to AUC > 5) |
| O=S(=O)(Nc1ncc(-c2cccc([C@H]3CC[C@H](OC(F)(F)F)C3)c2)c(-c2ccccc2C(F)(F)F)n1)c1ccccc1 (single isomer, unassigned) [Example 27a] | B (“B” refers to AUC between 2-5) |
